This passage reports IC50 results from BindingDB's records for doi:10.1021/jm00124a027 (Syntex Research, 1989).

The nature of this assay: Inhibition of thromboxane A2 synthetase as reduced ADP-induced aggregation of human platelet rich plasma in the presence of pig aortal microsomes.
On to `C/C(=C/c1ccc(Cc2cccnc2)n1CC(C)(C)C)C(=O)O`, for which the IC50 – broadly, the concentration that gives 50% inhibition – was determined as 78 µM. The same measure for `C/C(=C/c1cc(Cc2cccnc2)n(C(C)(C)C)c1)C(=O)O`: 0.044 µM; for `C/C(=C/c1ccc(Cc2cccnc2)n1C)C(=O)O`: 0.05 µM.

On to `CCn1c(/C=C(/C)C(=O)O)ccc1Cc1cccnc1`, for which the IC50 came out at 0.042 µM. As for `C/C(=C/c1ccc(Cc2cccnc2)n1C(C)C)C(=O)O`, the IC50 turned out to be 2.1 µM. In the case of `COC(=O)[C@@H]1CC1c1ccc(Cn2ccnc2)n1C` (some centres not stated), the IC50 turned out to be 9.1 µM. Turning to `Cn1c(/C=C/C(=O)O)ccc1Cn1ccnc1`, the IC50 worked out at 3.8 µM.

Regarding `C/C(=C/c1ccc(Cc2cccnc2)n1-c1ccccc1)C(=O)O`, the IC50 turned out to be 24 µM. The same measure for `C/C(=C\c1cc(Cn2ccnc2)n(C)c1)C(=O)O`: 1.6 µM. As for `C/C(=C/c1ccc(Cn2ccnc2)n1C)C(=O)O`, the IC50 came out at 1 µM. The figure for `C/C(=C\c1ccc(Cn2ccnc2)[nH]1)C(=O)O` is 9.1 µM; for `Cn1cc(/C=C/C(=O)O)cc1Cn1ccnc1` it is 4.6 µM.
